# Where two headings read alike, the source gives them in different places.
# Assays:
# [1] = tested on: HEPG2 human cancer cell line; assay: MTT in vitro anticancer activity against HEPG2 cell line; type: cell-based; settings: for IC50: Homo sapiens, read-out: IC50 HEPG2; for fold higher activity than erlotinib, HEPG2: versus erlotinib (10.6 μM)
# Description: The MTT method of monitoring in vitro cytotoxicity was used with multiwell plates. The stock concentration of the entire synthesized compounds in DMSO was 10 mM, and this was used to prepare the working dilution. The final DMSO concentration used in the experiments was ≤ 0.5% as the working concentration. Human liver cancer cell lines (HepG2) were cultured according to the manufacturer's instructions. […] The cell viability was determined in each experiment using MTT (3-(4, 5-dimethylthiazol-2-yl)-2, 5-diphenyltetrazolium bromide) colorimetric assay. The optical density was measured with a microplate reader at 540 nm. The experiment was conducted in triplicate. Data were calculated as percent of cell viability.
# VEGFR-2 = VEGFR-2 (Homo sapiens, UniProt P35968); assay: VEGFR-2 kinase inhibitory assay (HTScan VEGF Receptor 2 kinase assay kit)
# EGFR = EGFR (Homo sapiens, UniProt P00533); assay: EGFR kinase inhibitory assay (BPS Bioscience EGFR kinase assay kit)
# [2] = HepG2, MTT, 24 h treatment, mean of three experiments
# EGFR, sequence (P00533 25-1210): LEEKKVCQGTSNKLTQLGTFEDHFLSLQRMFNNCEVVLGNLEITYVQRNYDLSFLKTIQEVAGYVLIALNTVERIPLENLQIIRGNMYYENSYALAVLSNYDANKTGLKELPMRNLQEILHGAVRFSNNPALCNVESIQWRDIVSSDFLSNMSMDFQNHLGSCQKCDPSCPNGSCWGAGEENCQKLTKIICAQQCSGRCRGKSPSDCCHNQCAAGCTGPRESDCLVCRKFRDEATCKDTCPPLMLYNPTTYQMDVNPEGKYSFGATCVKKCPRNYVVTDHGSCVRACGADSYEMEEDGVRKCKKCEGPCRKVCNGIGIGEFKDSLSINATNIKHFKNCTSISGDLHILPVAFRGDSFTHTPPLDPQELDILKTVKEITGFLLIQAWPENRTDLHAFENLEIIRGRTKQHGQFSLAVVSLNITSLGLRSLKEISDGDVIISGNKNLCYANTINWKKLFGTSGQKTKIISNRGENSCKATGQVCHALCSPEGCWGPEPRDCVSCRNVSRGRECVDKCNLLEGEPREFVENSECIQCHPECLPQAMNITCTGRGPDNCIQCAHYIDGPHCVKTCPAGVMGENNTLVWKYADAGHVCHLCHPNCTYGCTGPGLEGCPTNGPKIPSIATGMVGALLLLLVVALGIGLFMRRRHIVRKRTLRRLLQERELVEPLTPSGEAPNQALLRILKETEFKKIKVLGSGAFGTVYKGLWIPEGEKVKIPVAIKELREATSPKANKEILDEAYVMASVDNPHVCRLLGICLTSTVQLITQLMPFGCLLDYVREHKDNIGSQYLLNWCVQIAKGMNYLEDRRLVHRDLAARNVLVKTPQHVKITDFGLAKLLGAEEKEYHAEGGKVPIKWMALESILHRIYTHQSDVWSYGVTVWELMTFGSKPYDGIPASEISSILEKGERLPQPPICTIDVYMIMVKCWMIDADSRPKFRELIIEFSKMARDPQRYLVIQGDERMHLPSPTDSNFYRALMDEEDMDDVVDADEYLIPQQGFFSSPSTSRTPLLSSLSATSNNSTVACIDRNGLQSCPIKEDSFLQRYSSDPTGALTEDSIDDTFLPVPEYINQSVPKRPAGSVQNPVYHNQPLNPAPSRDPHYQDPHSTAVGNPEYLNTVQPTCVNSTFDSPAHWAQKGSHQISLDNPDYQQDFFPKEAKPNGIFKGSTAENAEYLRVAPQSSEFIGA
# VEGFR-2, sequence (P35968 20-1356): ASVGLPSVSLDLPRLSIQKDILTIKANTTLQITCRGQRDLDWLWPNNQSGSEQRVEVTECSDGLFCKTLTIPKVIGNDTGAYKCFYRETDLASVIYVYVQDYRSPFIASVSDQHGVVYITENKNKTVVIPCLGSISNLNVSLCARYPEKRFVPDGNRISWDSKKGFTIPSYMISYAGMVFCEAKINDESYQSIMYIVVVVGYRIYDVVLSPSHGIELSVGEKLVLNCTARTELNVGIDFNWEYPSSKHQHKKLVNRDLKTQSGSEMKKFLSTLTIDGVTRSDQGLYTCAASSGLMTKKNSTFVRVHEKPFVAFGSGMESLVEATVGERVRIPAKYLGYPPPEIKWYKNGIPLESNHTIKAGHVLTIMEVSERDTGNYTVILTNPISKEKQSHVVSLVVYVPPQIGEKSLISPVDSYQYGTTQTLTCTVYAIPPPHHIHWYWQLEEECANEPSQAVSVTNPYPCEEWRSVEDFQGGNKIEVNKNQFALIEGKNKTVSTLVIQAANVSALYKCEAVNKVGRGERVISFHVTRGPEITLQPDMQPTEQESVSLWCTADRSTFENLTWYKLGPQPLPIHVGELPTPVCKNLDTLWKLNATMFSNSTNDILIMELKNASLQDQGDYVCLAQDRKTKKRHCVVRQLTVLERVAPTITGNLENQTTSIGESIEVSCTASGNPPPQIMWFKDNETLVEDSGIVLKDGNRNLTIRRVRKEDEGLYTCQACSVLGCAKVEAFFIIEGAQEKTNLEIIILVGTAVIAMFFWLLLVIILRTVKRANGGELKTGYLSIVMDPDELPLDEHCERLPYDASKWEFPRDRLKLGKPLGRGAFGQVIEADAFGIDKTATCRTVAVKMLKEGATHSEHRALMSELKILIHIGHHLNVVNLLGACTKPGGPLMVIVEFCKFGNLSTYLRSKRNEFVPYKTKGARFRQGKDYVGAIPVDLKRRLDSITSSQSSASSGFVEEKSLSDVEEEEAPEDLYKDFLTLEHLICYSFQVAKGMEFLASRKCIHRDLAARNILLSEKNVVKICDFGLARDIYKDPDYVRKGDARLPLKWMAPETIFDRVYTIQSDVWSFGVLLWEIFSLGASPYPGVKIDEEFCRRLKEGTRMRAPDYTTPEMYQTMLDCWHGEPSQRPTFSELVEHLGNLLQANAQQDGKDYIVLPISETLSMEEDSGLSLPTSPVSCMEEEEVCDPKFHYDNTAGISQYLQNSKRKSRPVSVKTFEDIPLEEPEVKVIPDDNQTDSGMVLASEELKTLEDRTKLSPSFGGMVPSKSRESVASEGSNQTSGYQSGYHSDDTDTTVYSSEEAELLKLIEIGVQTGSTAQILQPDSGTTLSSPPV
"IC50 [1, 2]",IC50 (VEGFR-2),IC50 (EGFR),melting point,SMILES,"fold higher activity than erlotinib, HEPG2 [1]","IC50 ([1]; HepG2, 24 h)"
710 nM,230 nM,90 nM,205 °C,"CC1=NNC2=NC(=O)NC(c3ccccc3Br)C12 (centres unmarked) [Compound 12, 4-(2-bromophenyl)-3-methyl-1,3a, 4,5-tetrahydro-6h-pyrazolo [3,4-d]pyrimidin-6-one]",~10 fold,
630 nM,270 nM,300 nM,210 °C,"CC1=NNC(=O)/C1=C/c1ccccc1Br [Compound 11, (E)-4-(2-Bromobenzylidene)-5-methyl-2,4-dihydro-3H-pyrazol-3-one]",~10 fold,
310 nM,360 nM,130 nM,115 °C,"Cc1nc2c(c(=O)[nH]1)C(c1ccccc1Br)c1c(C)n[nH]c1O2 (centres unmarked) [Compound 4, 4-(2-Bromophenyl)-3,7-dimethyl-4,6-dihydropyrazolo[4′,3′:5,6]pyrano[2,3-d]pyrimidin-5(1H)-one]",~10 fold,
380 nM,460 nM,230 nM,,"Cc1n[nH]c2c1C(c1ccccc1Br)C(C#N)=C(NC(=S)Nc1ccccc1)O2 (centres unmarked) [Compound 8, 1-(4-(2-Bromophenyl)-5-cyano-3-methyl-1,4-dihydropyrano[2,3-c]pyrazol-6-yl)-3-phenylthiourea]",,
1060 nM,,,,"CNC(=O)c1cc(Oc2ccc(NC(=O)Nc3ccc(Cl)c(C(F)(F)F)c3)cc2)ccn1 [Sorafenib, sorafenib, reference compound]",,
8710 nM,1120 nM,150 nM,205 °C,"Cc1n[nH]c2c1C(c1ccccc1Br)c1c(nc[nH]c1=O)O2 (centres unmarked) [Compound 5, 4-(2-Bromophenyl)-3-methyl-4,6-dihydropyrazolo [4′,3′:5,6]pyrano[2,3-d]pyrimidin-5(1H)-one]",,
,,,,"C#Cc1cccc(Nc2ncnc3cc(OCCOC)c(OCCOC)cc23)c1 [Erlotinib, erlotinib, reference compound]",,10600 nM
4070 nM,850 nM,60 nM,120 to 122 °C,"Cc1n[nH]c2c1C(c1ccccc1Br)c1c(ncn(N)c1=N)O2 (centres unmarked) [Compound 3, 4-(2-Bromophenyl)-5-imino-3-methyl-1,4-dihydropyrazolo[4′,3′:5,6]pyrano[2,3-d]pyrimidin-6(5H)-amine]",,
2300 nM,220 nM,160 nM,193 to 195 °C,"Cc1ccc(S(=O)(=O)NC2=C(C#N)C(c3ccccc3Br)c3c(C)n[nH]c3O2)cc1 (centres unmarked) [Compound 9, N-(4-(2-Bromophenyl)-5-cyano-3-methyl-1,4-dihydropyrano[2,3-c]pyrazol-6-yl)-4-methyl-benzenesulfonamide]",,
370 nM,370 nM,190 nM,> 360 °C,"Cc1n[nH]c2oc(=O)c(C#N)c(-c3ccccc3Br)c12 [Compound 15, 4-(2-Bromophenyl)-3-methyl-6-oxo-1,6-dihydropyrano[2,3-c]pyrazole-5-carbonitrile]",~10 fold,
6640 nM,2870 nM,110 nM,140 °C,"CC1=NNC2=NNC(c3ccccc3Br)C12 (centres unmarked) [Compound 14, 4-(2-Bromophenyl)-3-methyl-1,3a,4,5-tetrahydropyrazolo[3,4-c]pyrazole]",,
420 nM,11400 nM,140 nM,,"Cc1n[nH]c2c1C(c1ccccc1Br)C(C#N)=C(N)O2 (centres unmarked) [Compound 1, 6-amino-4-(2-bromophenyl)-3-methyl-1,4-dihydropyrano[2,3-c]pyrazole-5-carbonitrile]",~10 fold,
1810 nM,750 nM,120 nM,170 °C,"CC1=NNC2=NC(=S)NC(c3ccccc3Br)C12 (centres unmarked) [Compound 13, 4-(2-Bromophenyl)-3-methyl-1,3a,4,5-tetrahydro-6H-pyrazolo[3,4-d]pyrimidine-6-thione]",,
15700 nM,1100 nM,250 nM,320 °C,"Cc1n[nH]c2c1C(c1ccccc1Br)c1c(N)ncnc1O2 (centres unmarked) [Compound 6, 4-(2-Bromophenyl)-3-methyl-1,4-dihydropyrazolo[4′,3′:5,6]pyrano[2,3-d]pyrimidin-5-amine]",,
350 nM,2120 nM,490 nM,158 to 160 °C,"CCOC=NC1=C(C#N)C(c2ccccc2Br)c2c(C)n[nH]c2O1 (centres unmarked) [Compound 2, Ethyl(E)-N-(4-(2-bromophenyl)-5-cyano-3-methyl-1,4-dihydropyrano[2,3-cpyrazol-6-yl)formimidate]",~10 fold,
1840 nM,1450 nM,250 nM,> 360 °C,"Cc1n[nH]c2c1C(c1ccccc1Br)C(C#N)=C(NC(=O)CC#N)O2 (centres unmarked) [Compound 7, N-(4-(2-Bromophenyl)-5-cyano-3-methyl-1,4-dihydropyrano[2,3-c]pyrazol-6-yl)-2-cyanoacetamide]",,
